Measured values as given in US20230089247A1, “NOVEL COMPOUNDS SUITABLE FOR THE TREATMENT OF DYSLIPIDEMIA” (ZYDUS LIFESCIENCES LIMITED, priority 2019, published 2023).

Molecular target: PCSK9 (Homo sapiens, UniProt Q8NBP7)
Assay: BODIPY-LDL uptake assay in HepG2 cells
Format: cell-based
Conditions: 5 μg/ml PCSK9, BODIPY-LDL
Protocol: BODIPY-LDL Uptake Assay in HepG2 Cells.
An established assay for PCSK9 inhibition features uptake of fluorescently labeled LDL nanoparticles (BODIPY-LDL) by hepatocytes and uptake of the BODIPY-containing particles is maximized in the absence of PCSK9.
In the LDL uptake assay, HepG2 cells were seeded at a density of 6×10^4 cells/well in a 96-well plate. After 24 h, the test compounds at various concentrations were pre-incubated with 5 μg/ml PCSK9 in 0.2% DMSO for 60 min prior to the addition on to the cells. After 16 h the medium was removed and 1 μg/ml BODIPY-LDL (Invitrogen) in serum free media was added and incubated for 5 h. Then the cells were washed twice with 0.25% BSA in PBS. Then the fluorescence of the cells in PBS was measured using TECAN multimode reader (Excitation: 485 nm and Emission: 520 nm). The readings were taken in triplicate and the final values were normalized with the protein concentration from respective wells. The wells without test compound containing external PCSK9 is considered as zero uptake and the one without PCSK9 was considered as 100% uptake. The percentage increase in LDL uptake for the test compounds were calculated using these values.

PCSK9, sequence (Q8NBP7 153-692): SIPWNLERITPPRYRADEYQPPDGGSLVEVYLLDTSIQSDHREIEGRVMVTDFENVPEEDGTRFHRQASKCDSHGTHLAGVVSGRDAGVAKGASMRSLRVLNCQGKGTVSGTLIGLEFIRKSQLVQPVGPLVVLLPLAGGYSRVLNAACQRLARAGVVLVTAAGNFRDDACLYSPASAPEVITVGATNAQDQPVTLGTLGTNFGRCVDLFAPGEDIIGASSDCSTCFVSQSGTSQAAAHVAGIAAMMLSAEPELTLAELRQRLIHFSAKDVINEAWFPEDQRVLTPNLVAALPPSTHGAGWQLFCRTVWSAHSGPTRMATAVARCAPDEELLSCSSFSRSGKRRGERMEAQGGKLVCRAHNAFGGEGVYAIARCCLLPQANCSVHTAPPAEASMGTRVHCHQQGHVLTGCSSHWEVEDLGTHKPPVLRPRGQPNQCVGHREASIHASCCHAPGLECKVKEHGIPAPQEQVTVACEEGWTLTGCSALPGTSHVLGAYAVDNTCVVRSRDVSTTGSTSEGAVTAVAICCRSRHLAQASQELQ

O=C(Nc1ccc(C2(O)COC2)cc1)C1CCN(c2ccc(C(F)(F)F)cc2)CC1 [Example 3, N-(4-(3-hydroxyoxetan-3-yl)phenyl)-1-(4-(trifluoromethyl)phenyl) piperidine-4-carboxamide]
% increase in LDL Uptake (1 μM test compound): −2%
% increase in LDL Uptake (10 μM test compound): 39%
% increase in LDL Uptake (30 μM test compound): 34%

O=C(Nc1ccc(C2(O)COC2)cc1)N1CCC(c2ccc(C(F)(F)F)cc2)CC1 [Example 4, N-(4-(3-hydroxyoxetan-3-yl)phenyl)-4-(4-(trifluoromethyl)phenyl) piperidine-1-carboxamide]
% increase in LDL Uptake (1 μM test compound): 38%
% increase in LDL Uptake (10 μM test compound): 58%
% increase in LDL Uptake (30 μM test compound): 77%

COC1(c2ccc(NC(=O)N3CCC(c4ccc(C(F)(F)F)cc4)CC3)cc2)COC1 [Example 5, N-(4-(3-methoxyoxetan-3-yl)phenyl)-4-(4-(trifluoromethyl)phenyl) piperidine-1-carboxamide]
% increase in LDL Uptake (1 μM test compound): 41%
% increase in LDL Uptake (10 μM test compound): 76%
% increase in LDL Uptake (30 μM test compound): 72%

O=S(=O)(c1ccc(C2(O)COC2)cc1)N1CCN(c2ccc(C(F)(F)F)cc2)CC1 [Example 7, 3-(4-((4-(4-(trifluoromethyl)phenyl)piperazin-1-yl)sulfonyl)phenyl) oxetan-3-ol]
% increase in LDL Uptake (1 μM test compound): 28%
% increase in LDL Uptake (10 μM test compound): 63%
% increase in LDL Uptake (30 μM test compound): 128%

O=C(c1ccc(C2(OCCO)COC2)cc1)N1CC2CN(c3ccc(C(F)(F)F)cc3)CC2C1 (stereo not drawn) [Example 12, (4-(3-(2-hydroxyethoxy)oxetan-3-yl)phenyl)(5-(4-(trifluoromethyl)phenyl)hexahydropyrrolo[3,4-c]pyrrol-2(1H)-yl)methanone]
% increase in LDL Uptake (1 μM test compound): 21%
% increase in LDL Uptake (10 μM test compound): 32%
% increase in LDL Uptake (30 μM test compound): 34%

O=C(O)COC1(c2ccc(C(=O)N3CC4CN(c5ccc(C(F)(F)F)cc5)CC4C3)cc2)COC1 (stereo not drawn) [Example 13, 2-((3-(4-(5-(4-(trifluoromethyl)phenyl)octahydropyrrolo[3,4-c]pyrrole-2-carbonyl)phenyl)oxetan-3-yl)oxy)acetic acid]
% increase in LDL Uptake (1 μM test compound): 29%
% increase in LDL Uptake (10 μM test compound): 43%
% increase in LDL Uptake (30 μM test compound): 33%

O=C(c1ccc(C2(O)COC2)cc1)N1CCC(c2cc(F)cc(C(F)(F)F)c2)CC1 [Example 14, (4-(3-fluoro-5-(trifluoromethyl)phenyl)piperidin-1-yl)(4-(3-hydroxyoxetan-3-yl)phenyl)methanone]
% increase in LDL Uptake (1 μM test compound): 0%
% increase in LDL Uptake (10 μM test compound): 20%
% increase in LDL Uptake (30 μM test compound): 122%

OC1(c2ccc(-c3nc(-c4ccc(C(F)(F)F)c(F)c4)no3)cc2)COC1 [Example 16, 3-(4-(3-(3-fluoro-4-(trifluoromethyl)phenyl)-1,2,4-oxadiazol-5-yl)phenyl) oxetan-3-ol]
% increase in LDL Uptake (1 μM test compound): 38%
% increase in LDL Uptake (10 μM test compound): 22%
% increase in LDL Uptake (30 μM test compound): 19%

Cn1nc(-c2ccc(C(F)(F)F)cc2)c2c1CN(C(=O)c1ccc(C3(O)COC3)cc1)C2 [Example 20, (4-(3-hydroxyoxetan-3-yl)phenyl)(1-methyl-3-(4-(trifluoromethyl)phenyl)-4,6-dihydropyrrolo[3,4-c]pyrazol-5(1H)-yl)methanone]
% increase in LDL Uptake (1 μM test compound): 0%
% increase in LDL Uptake (10 μM test compound): 7%
% increase in LDL Uptake (30 μM test compound): 18%

O=C(c1ccc(C2(O)COC2)cc1)N1CCC(c2ccc(OC(F)(F)F)cc2)CC1 [Example 22, (4-(3-hydroxyoxetan-3-yl)phenyl)(4-(4-(trifluoromethoxy)phenyl)piperidin-1-yl)methanone]
% increase in LDL Uptake (1 μM test compound): 0%
% increase in LDL Uptake (10 μM test compound): 19%
% increase in LDL Uptake (30 μM test compound): 14%

COc1ccc(C2CCN(C(=O)c3ccc(C4(O)COC4)cc3)CC2)cc1Cl [Example 26, (4-(3-chloro-4-methoxyphenyl)piperidin-1-yl)(4-(3-hydroxyoxetan-3-yl)phenyl)methanone]
% increase in LDL Uptake (1 μM test compound): 15%
% increase in LDL Uptake (10 μM test compound): 21%
% increase in LDL Uptake (30 μM test compound): 33%

COc1ccc(C2CCN(C(=O)c3ccc(C4(O)COC4)cc3)CC2)cc1 [Example 27, (4-(3-hydroxyoxetan-3-yl)phenyl)(4-(4-methoxyphenyl)piperidin-1-yl)methanone]
% increase in LDL Uptake (1 μM test compound): 14%
% increase in LDL Uptake (10 μM test compound): 21%
% increase in LDL Uptake (30 μM test compound): 38%

COc1ccc(C2CCN(C(=O)c3ccc(C4(O)COC4)cc3)CC2)cc1F [Example 28, (4-(3-fluoro-4-methoxyphenyl)piperidin-1-yl)(4-(3-hydroxyoxetan-3-yl)phenyl)methanone]
% increase in LDL Uptake (1 μM test compound): 0%
% increase in LDL Uptake (10 μM test compound): 8%
% increase in LDL Uptake (30 μM test compound): 39%

Cc1ccc(C2CCN(C(=O)c3ccc(C4(O)COC4)cc3)CC2)cc1Cl [Example 29, (4-(3-chloro-4-methylphenyl)piperidin-1-yl)(4-(3-hydroxyoxetan-3-yl)phenyl)methanone]
% increase in LDL Uptake (1 μM test compound): 0%
% increase in LDL Uptake (10 μM test compound): 17%
% increase in LDL Uptake (30 μM test compound): 49%

O=C(c1ccc(C2(O)COC2)cc1)N1CCC(c2ccc(C(F)(F)F)c(Cl)c2)CC1 [Example 32, (4-(3-chloro-4-(trifluoromethyl)phenyl)piperidin-1-yl)(4-(3-hydroxyoxetan-3-yl)phenyl)methanone]
% increase in LDL Uptake (1 μM test compound): 12%
% increase in LDL Uptake (10 μM test compound): 30%
% increase in LDL Uptake (30 μM test compound): 33%

O=C(c1ccc(C2(O)COC2)cc1)N1CCC(c2ccccc2C(F)(F)F)CC1 [Example 33, (4-(3-hydroxyoxetan-3-yl)phenyl)(4-(2-(trifluoromethyl)phenyl)piperidin-1-yl)methanone]
% increase in LDL Uptake (1 μM test compound): 59%
% increase in LDL Uptake (10 μM test compound): 73%
% increase in LDL Uptake (30 μM test compound): 69%

CC(=O)OC1(c2ccc(C(=O)N3CCC(c4ccc(C(F)(F)F)cc4)CC3)cc2)COC1 [Example 36, 3-(4-(4-(4-(trifluoromethyl)phenyl)piperidine-1-carbonyl)phenyl) oxetan-3-yl acetate]
% increase in LDL Uptake (1 μM test compound): 0%
% increase in LDL Uptake (10 μM test compound): 9%
% increase in LDL Uptake (30 μM test compound): 17%

COC1(c2ccc(C(=O)N3CCC(c4cccc(C(F)(F)F)c4)CC3)cc2)COC1 [Example 37, (4-(3-methoxyoxetan-3-yl)phenyl)(4-(3-(trifluoromethyl)phenyl)piperidin-1-yl)methanone]
% increase in LDL Uptake (1 μM test compound): 31%
% increase in LDL Uptake (10 μM test compound): 65%
% increase in LDL Uptake (30 μM test compound): 36%

COC1(c2ccc(C(=O)N3CCC(c4ccc(C(F)(F)F)c(F)c4)CC3)cc2)COC1 [Example 38, (4-(3-fluoro-4-(trifluoromethyl)phenyl)piperidin-1-yl)(4-(3-methoxyoxetan-3-yl)phenyl)methanone]
% increase in LDL Uptake (1 μM test compound): 43%
% increase in LDL Uptake (10 μM test compound): 51%
% increase in LDL Uptake (30 μM test compound): 25%

CCOC1(c2ccc(C(=O)N3CCC(c4ccc(C(F)(F)F)c(F)c4)CC3)cc2)COC1 [Example 42, (4-(3-ethoxyoxetan-3-yl)phenyl)(4-(3-fluoro-4-(trifluoromethyl)phenyl)piperidin-1-yl)methanone]
% increase in LDL Uptake (1 μM test compound): 20%
% increase in LDL Uptake (10 μM test compound): 25%
% increase in LDL Uptake (30 μM test compound): 4%

CC(C)OC1(c2ccc(C(=O)N3CCC(c4ccc(C(F)(F)F)cc4)CC3)cc2)COC1 [Example 44, (4-(3-isopropoxyoxetan-3-yl)phenyl)(4-(4-(trifluoromethyl)phenyl)piperidin-1-yl)methanone]
% increase in LDL Uptake (1 μM test compound): 31%
% increase in LDL Uptake (10 μM test compound): 56%
% increase in LDL Uptake (30 μM test compound): 77%

CC(C)COC1(c2ccc(C(=O)N3CCC(c4ccc(C(F)(F)F)cc4)CC3)cc2)COC1 [Example 45, (4-(3-isobutoxyoxetan-3-yl)phenyl)(4-(4-(trifluoromethyl)phenyl)piperidin-1-yl)methanone]
% increase in LDL Uptake (1 μM test compound): 19%
% increase in LDL Uptake (10 μM test compound): 9%
% increase in LDL Uptake (30 μM test compound): 4%

O=C(c1ccc(C2(OCC3CC3)COC2)cc1)N1CCC(c2ccc(C(F)(F)F)cc2)CC1 [Example 46, (4-(3-(cyclopropylmethoxy)oxetan-3-yl)phenyl)(4-(4-(trifluoromethyl)phenyl)piperidin-1-yl)methanone]
% increase in LDL Uptake (1 μM test compound): 28%
% increase in LDL Uptake (10 μM test compound): 47%
% increase in LDL Uptake (30 μM test compound): 34%

O=C(c1cccc(C2(O)COC2)c1)N1CCCC(c2ccc(C(F)(F)F)cc2)C1 (stereo not drawn) [Example 48, (3-(3-hydroxyoxetan-3-yl)phenyl)(3-(4-(trifluoromethyl)phenyl)piperidin-1-yl)methanone]
% increase in LDL Uptake (1 μM test compound): 0%
% increase in LDL Uptake (10 μM test compound): 142%
% increase in LDL Uptake (30 μM test compound): 234%
